A short description of series [1]: Peptide stability test 1: aqueous solution, phosphate buffer pH 7.0, stored at 40° C., HPLC conditions 1. The class given is physicochemical. The following applies: phosphate buffer pH 7.0, 40° C. As to the method:
Peptides 1 and 3 to 5 synthesized in Example 2 were weighed and dissolved in phosphate buffer (pH 7.0) to prepare 1.0 mM peptide solutions. The 1.0 mM peptide solutions were then diluted with phosphate buffer to 100 μM. After filtering with. Chromatdisk (product of Merck Millipore, Millex-GV, 0.22 μm), each filtrate was dispensed into an LC vial (Waters Deactivated Qsert Vial). The prepared peptide solutions were incubated for one month or 2 months in a 40° C. thermostatic bath to obtain stored samples. A simultaneously prepared sample among the peptide solutions that was not stored was used as a standard sample (initial sample). The standard sample and the stored samples were stored at −30° C. until sample analysis.
Using the total weight of the aqueous peptide solution and storage vessel as the specimen weight, measurements were recorded as the specimen weights before storage and the specimen weights after storage under different storage conditions. The empty weight of the storage vessel was also measured, and the moisture permeability was determined by the following formula.
After stirring the standard sample and the stored samples on a vortex mixer, each peptide solution was transferred to an HPLC vial (Deactivated Qsert vial by Waters Co.). Reverse-phase HPLC (HPLC system: Prominence by Shimadzu Corp.) was conducted under the conditions shown in Table 3 below for analysis of the_peptide solutions, and chromatograms were obtained.
Column: XSelect CSH C18 by Waters Co., 5 μm, 4.6×250 mm
Guard column: XSelect CSH C18 by Waters. Co., 5 μm, 4.6×20 mm Guard Cartridge
Detection wavelength: 220 nm
Mobile phase A: 0.1% formic acid in water
Mobile phase B: 0.1% formic acid in acetonitrile
Measuring time: 30 minutes
Measuring sample injection rate: 50 μL
Column temperature: 40° C.
Mobile phase delivery: The mixing ratio of mobile phase A and mobile phase B was varied as shown in Table 3 for linear concentration gradient control.
The peak area value for the peptide in the chromatogram was calculated, and the survival rate (survival rate before correction for water) was calculated using formula (2). The survival rate after correction for water was also calculated from the survival rate before correction for water using formula (3), taking into account the moisture permeability of the container.

Series [2] is described as follows: Peptide stability tests 2 and 3: Tris buffer pH 7.0, stored at 60° C., HPLC conditions 2. Particulars: 100 μM peptide, Tris buffer pH 7.0, 60° C. The class given is physicochemical. An outline of the steps: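 Survival rate, corrected for water, was quantified by reversed-phase C18 HPLC (220 nm; formic acid water/acetonitrile gradient; 40° C. column) against an initial unstored standard. Samples were 100 μM peptide in pH 7.0 Tris stored 1–2 weeks at 60° C.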

Molecules are shown by their SMILES. Square brackets hold non-standard residues; d marks the D form. Peptide text beside a SMILES is read from it. * marks the point of attachment. Ala(1H-tetrazol-5-yl) = N[C@@H](Cc1nnn[nH]1)C(=O)O; Ms = CS(=O)(=O)*

Consider eight compounds from patent US12304932B2, “PACAP stabilized peptide” (SENJU PHARMACEUTICAL CO., LTD., priority 2017, dated 2025).

Consider `CC[C@H](C)[C@H](NC(=O)CNC(=O)[C@H](Cc1nnn[nH]1)NC(=O)[C@H](CO)NC(=O)[C@@H](N)Cc1c[nH]cn1)C(=O)N[C@@H](Cc1ccccc1)C(=O)N[C@H](C(=O)N[C@@H](CC(=O)O)C(=O)N[C@@H](CO)C(=O)N[C@@H](Cc1ccc(O)cc1)C(=O)N[C@@H](CO)C(=O)N[C@@H](CCCNC(=N)N)C(=O)N[C@@H](Cc1ccc(O)cc1)C(=O)N[C@@H](CCCNC(=N)N)C(=O)N[C@@H](CCCCN)C(=O)N[C@@H](CCC(N)=O)C(=O)N[C@@H](CCSC)C(=O)N[C@@H](C)C(=O)N[C@H](C(=O)N[C@@H](CCCCN)C(=O)N[C@@H](CCCCN)C(=O)N[C@@H](Cc1ccc(O)cc1)C(=O)N[C@@H](CC(C)C)C(=O)N[C@@H](C)C(=O)N[C@@H](C)C(=O)N[C@H](C(=O)N[C@@H](CC(C)C)C(N)=O)C(C)C)C(C)C)[C@@H](C)O` [Peptide 3], for which the “survival rate after correction for water, 40° C., 1-month storage” value in series [1] (100 μM peptide, 1 month) was 76.5%. In series [1] (100 μM peptide, 2 months), the “survival rate after correction for water, 40° C., 2-month storage” value came out at 60.7%. In addition, the “stability in aqueous solution, in words” value in series [1] is on record as “higher stability than peptide 1”.
With `CC[C@H](C)[C@H](NC(=O)CNC(=O)[C@H](Cc1nnn[nH]1)NC(=O)[C@H](CO)NC(=O)[C@H](Cc1c[nH]cn1)NC(C)=O)C(=O)N[C@@H](Cc1ccccc1)C(=O)N[C@H](C(=O)N[C@@H](Cc1nnn[nH]1)C(=O)N[C@@H](CO)C(=O)N[C@@H](Cc1ccc(O)cc1)C(=O)N[C@@H](CO)C(=O)N[C@@H](CCCNC(=N)N)C(=O)N[C@@H](Cc1ccc(O)cc1)C(=O)N[C@@H](CCCNC(=N)N)C(=O)N[C@@H](CCCCN)C(=O)N[C@@H](C)C(=O)N[C@@H](C)C(=O)N[C@@H](C)C(=O)N[C@H](C(=O)N[C@@H](CCCCN)C(=O)N[C@@H](CCCCN)C(=O)N[C@@H](Cc1ccc(O)cc1)C(=O)N[C@@H](CC(C)C)C(=O)N[C@@H](C)C(=O)N[C@@H](C)C(=O)N[C@H](C(=O)N[C@@H](CC(C)C)C(N)=O)C(C)C)C(C)C)[C@@H](C)O` [Peptide 28] (Ac-HS[Ala(1H-tetrazol-5-yl)]GIFT[Ala(1H-tetrazol-5-yl)]SYSRYRKAAAVKKYLAAVL-NH2), the “survival rate after correction for water, 60° C., 1-week storage” value in series [2] (1 week) was 94.6%. Further, in series [2] (2 weeks), the “survival rate after correction for water, 60° C., 2-week storage” value is 90.5%.
In series [2] (2 weeks), `CC[C@H](C)[C@H](NC(=O)CNC(=O)[C@H](Cc1nnn[nH]1)NC(=O)[C@H](CO)NC(=O)[C@H](Cc1c[nH]cn1)NS(C)(=O)=O)C(=O)N[C@@H](Cc1ccccc1)C(=O)N[C@H](C(=O)N[C@@H](Cc1nnn[nH]1)C(=O)N[C@@H](C)C(=O)N[C@@H](Cc1ccc(O)cc1)C(=O)N[C@@H](CO)C(=O)N[C@@H](CCCNC(=N)N)C(=O)N[C@@H](Cc1ccc(O)cc1)C(=O)N[C@@H](CCCNC(=N)N)C(=O)N[C@@H](CCCCN)C(=O)N[C@@H](CCC(N)=O)C(=O)N[C@@H](CC(C)C)C(=O)N[C@@H](C)C(=O)N[C@H](C(=O)N[C@@H](CCCCN)C(=O)N[C@@H](CCCCN)C(=O)N[C@@H](Cc1ccc(O)cc1)C(=O)N[C@@H](CC(C)C)C(=O)N[C@@H](C)C(=O)N[C@@H](C)C(=O)N[C@H](C(=O)N[C@@H](CC(C)C)C(N)=O)C(C)C)C(C)C)[C@@H](C)O` [Peptide 29] (Ms-HS[Ala(1H-tetrazol-5-yl)]GIFT[Ala(1H-tetrazol-5-yl)]AYSRYRKQLAVKKYLAAVL-NH2) displayed a survival rate after correction for water, 60° C., 2-week storage (Table 7-2) of 91.9%.
Still for that read-out and setting: in the case of `CC[C@H](C)[C@H](NC(=O)[C@H](C)NC(=O)[C@H](Cc1nnn[nH]1)NC(=O)[C@H](CO)NC(=O)[C@H](Cc1c[nH]cn1)NS(C)(=O)=O)C(=O)N[C@@H](Cc1ccccc1)C(=O)N[C@H](C(=O)N[C@@H](Cc1nnn[nH]1)C(=O)N[C@@H](CO)C(=O)N[C@@H](Cc1ccc(O)cc1)C(=O)N[C@@H](CO)C(=O)N[C@@H](CCCNC(=N)N)C(=O)N[C@@H](Cc1ccc(O)cc1)C(=O)N[C@@H](CCCNC(=N)N)C(=O)N[C@@H](CCCCN)C(=O)N[C@@H](CCC(N)=O)C(=O)N[C@@H](CC(C)C)C(=O)N[C@@H](C)C(=O)N[C@H](C(=O)N[C@@H](CCCCN)C(=O)N[C@@H](CCCCN)C(=O)N[C@@H](Cc1ccc(O)cc1)C(=O)N[C@@H](CC(C)C)C(=O)N[C@@H](C)C(=O)N[C@@H](C)C(=O)N[C@H](C(=O)N[C@@H](CC(C)C)C(N)=O)C(C)C)C(C)C)[C@@H](C)O` [Peptide 30] (Ms-HS[Ala(1H-tetrazol-5-yl)]AIFT[Ala(1H-tetrazol-5-yl)]SYSRYRKQLAVKKYLAAVL-NH2) it was 92.2%; in that of `CC[C@H](C)[C@H](NC(=O)[C@H](C)NC(=O)[C@H](Cc1nnn[nH]1)NC(=O)[C@H](CO)NC(=O)[C@H](Cc1c[nH]cn1)NS(C)(=O)=O)C(=O)N[C@@H](Cc1ccccc1)C(=O)N[C@H](C(=O)N[C@@H](Cc1nnn[nH]1)C(=O)N[C@@H](CO)C(=O)N[C@@H](Cc1ccc(O)cc1)C(=O)N[C@@H](CO)C(=O)N[C@@H](CCCNC(=N)N)C(=O)N[C@@H](Cc1ccc(O)cc1)C(=O)N[C@@H](CCCNC(=N)N)C(=O)N[C@@H](CCCCN)C(=O)N[C@@H](CCC(N)=O)C(=O)N[C@@H](C)C(=O)N[C@@H](C)C(=O)N[C@H](C(=O)N[C@@H](CCCCN)C(=O)N[C@@H](CCCCN)C(=O)N[C@@H](Cc1ccc(O)cc1)C(=O)N[C@@H](CC(C)C)C(=O)N[C@@H](C)C(=O)N[C@@H](C)C(=O)N[C@H](C(=O)N[C@@H](CC(C)C)C(N)=O)C(C)C)C(C)C)[C@@H](C)O` [Peptide 31] (Ms-HS[Ala(1H-tetrazol-5-yl)]AIFT[Ala(1H-tetrazol-5-yl)]SYSRYRKQAAVKKYLAAVL-NH2), 90.1%; in that of `CC[C@H](C)[C@H](NC(=O)[C@H](C)NC(=O)[C@H](Cc1nnn[nH]1)NC(=O)[C@H](CO)NC(=O)[C@H](Cc1c[nH]cn1)NC(C)=O)C(=O)N[C@@H](Cc1ccccc1)C(=O)N[C@H](C(=O)N[C@@H](Cc1nnn[nH]1)C(=O)N[C@@H](CO)C(=O)N[C@@H](Cc1ccc(O)cc1)C(=O)N[C@@H](CO)C(=O)N[C@@H](CCCNC(=N)N)C(=O)N[C@@H](Cc1ccc(O)cc1)C(=O)N[C@@H](CCCNC(=N)N)C(=O)N[C@@H](CCCCN)C(=O)N[C@@H](CCC(N)=O)C(=O)N[C@@H](C)C(=O)N[C@@H](C)C(=O)N[C@H](C(=O)N[C@@H](CCCCN)C(=O)N[C@@H](CCCCN)C(=O)N[C@@H](Cc1ccc(O)cc1)C(=O)N[C@@H](CC(C)C)C(=O)N[C@@H](C)C(=O)N[C@@H](C)C(=O)N[C@H](C(=O)N[C@@H](CC(C)C)C(N)=O)C(C)C)C(C)C)[C@@H](C)O` [Peptide 32] (Ac-HS[Ala(1H-tetrazol-5-yl)]AIFT[Ala(1H-tetrazol-5-yl)]SYSRYRKQAAVKKYLAAVL-NH2), 88.7%.
Still for that read-out and setting: in the case of `CC[C@H](C)[C@H](NC(=O)[C@H](C)NC(=O)[C@H](Cc1nnn[nH]1)NC(=O)[C@H](C)NC(=O)[C@H](Cc1c[nH]cn1)NC(C)=O)C(=O)N[C@@H](Cc1ccccc1)C(=O)N[C@H](C(=O)N[C@@H](Cc1nnn[nH]1)C(=O)N[C@@H](CO)C(=O)N[C@@H](Cc1ccc(O)cc1)C(=O)N[C@@H](CO)C(=O)N[C@@H](CCCNC(=N)N)C(=O)N[C@@H](Cc1ccc(O)cc1)C(=O)N[C@@H](CCCNC(=N)N)C(=O)N[C@@H](CCCCN)C(=O)N[C@@H](CCC(N)=O)C(=O)N[C@@H](C)C(=O)N[C@@H](C)C(=O)N[C@H](C(=O)N[C@@H](CCCCN)C(=O)N[C@@H](CCCCN)C(=O)N[C@@H](Cc1ccc(O)cc1)C(=O)N[C@@H](CC(C)C)C(=O)N[C@@H](C)C(=O)N[C@@H](C)C(=O)N[C@H](C(=O)N[C@@H](CC(C)C)C(N)=O)C(C)C)C(C)C)[C@@H](C)O` [Peptide 33] (Ac-HA[Ala(1H-tetrazol-5-yl)]AIFT[Ala(1H-tetrazol-5-yl)]SYSRYRKQAAVKKYLAAVL-NH2) it was 85.3%; in that of `CC[C@H](C)[C@H](NC(=O)[C@H](C)NC(=O)[C@H](Cc1nnn[nH]1)NC(=O)[C@H](CO)NC(=O)[C@H](Cc1c[nH]cn1)NC(C)=O)C(=O)N[C@@H](Cc1ccccc1)C(=O)N[C@H](C(=O)N[C@@H](Cc1nnn[nH]1)C(=O)N[C@@H](CO)C(=O)N[C@@H](Cc1ccc(O)cc1)C(=O)N[C@@H](CO)C(=O)N[C@@H](CCCNC(=N)N)C(=O)N[C@@H](Cc1ccc(O)cc1)C(=O)N[C@@H](CCCNC(=N)N)C(=O)N[C@@H](CCCCN)C(=O)N[C@@H](C)C(=O)N[C@@H](C)C(=O)N[C@@H](C)C(=O)N[C@H](C(=O)N[C@@H](CCCCN)C(=O)N[C@@H](CCCCN)C(=O)N[C@@H](Cc1ccc(O)cc1)C(=O)N[C@@H](CC(C)C)C(=O)N[C@@H](C)C(=O)N[C@@H](C)C(=O)N[C@H](C(=O)N[C@@H](CC(C)C)C(N)=O)C(C)C)C(C)C)[C@@H](C)O` [Peptide 34] (Ac-HS[Ala(1H-tetrazol-5-yl)]AIFT[Ala(1H-tetrazol-5-yl)]SYSRYRKAAAVKKYLAAVL-NH2), 96.9%.
